# Laboratory results: patent US5312900A, “23K protein with binding specificity for queuine” (La Jolla Cancer Research Foundation, priority 1991, dated 1994)
# “Also recorded” adds a separate entry of the source.
# Experiments:
# [1] = tested on: ^125 I-Queb (23K protein); assay: Binding of ^125 I-Queb to ligand-sepharose; design: species or system bovine; settings: for Unbound CPM: 1×10^6 cpm ^125 I-Queb incubated 2 hours with ligand-sepharose, CPM in supernatant and three PBS/Ca++; for Unbound CPM / Bound CPM: Mg++ washes, n = 3; for Bound CPM: CPM associated with sepharose after removal of supernatant and three PBS/Ca++, ± S.D.; for % Bound: share of available ^125 I-Queb bound to ligand-sepharose; for Binding of ^125 I-Queb to ligand-sepharose and its elution (in words): successive elution with 20mM EDTA, 1M NaCl, 1M urea, 8M urea
# Method: Queb was isolated from the 15% SDS-PA gels by electroelution, and labelled with ^125 I according to Example IV. […] Equal quantities (1×10^6 cpm, 50 μl ) of ^125 I-Queb were incubated for 2 hours with equal aliquots (50 μl ) of ligand-sepharose. The buffer was then isolated and the sepharose was washed with PBS until less than 1×10^4 cpm were measured in the eluent.
# Queb = assay: Affinity chromatography of BAF proteins on ligand-sepharose with stepwise elution; format: binding, bovine; settings: third trimester BAF; elution with 20 mM EDTA, 1M NaCl, 1M urea, 8M urea
# Text: The isolation of Queuine binding factors was completed using affinity chromatography. CNBr-activated sepharose 4B (Pharmacia) was coupled with Queuine, guanosine or glycine using the manufacturers described procedure. The coupling ratio of Queuine to the amount of dry sepharose was 2.7 μmole to 0.1 g and the ratio of guanosine to sepharose was 1.3 μmole to 0.1 g. The procedure used targeted coupling of Queuine and guanosine at the 2-amino group of the purine ring.
# The affinity-sepharose was equilibrated with phosphate buffered saline (PBS) containing 2 mM CaCl2, and MgCl2 contained in a glass pipette. The sample was allowed to flow through the column containing the affinity-sepharose, and the bound material was eluted with a successive series of PBS buffers (pH 7.5) containing: 20 mM EDTA, 1M NaCl, 1M urea, 8M urea. Once eluted, the protein was precipitated with 95% ethanol containing 0.5M potassium acetate, washed twice in 95% ethanol, and then solubilized in SDS-PAGE sample buffer, 0.25M tris-HCl, pH 6.8; 10% glycerol; 2% SDS; 0.0025% bromophenol blue.
# Third trimester BAF (50 ml) was passed over a 0.4 ml Queuine-sepharose column. The column was then washed with PBS containing 2mM of CaCl2 and MgCl2 until the eluent contained<0.01 OD (280 nm). […] Eluent fractions (200 μl ) were collected and spectrophotometrically monitored (280 nm). […]
# HL-60 cells = assay: Differentiation response of HL-60 cells; format: cell-based; settings: TPA-induced differentiation where stated
# [2] = tested on: HL 60 cells (ATCC No. CCL 240); assay: Cell growth of HL 60 cells; format: cell-based
# ^125 I-Queb = assay: Effect of TPA on ^125 I-Queb binding to Queuine-sepharose; design: species or system bovine; settings: TPA at 50% of the concentration of Queuine bound to sepharose
# Method: TPA, at 50% of the concentration of the Queuine bound to sepharose, was evaluated for its ability to antagonize ^125 I-Queb binding to Queuine-sepharose. FIG. 3A illustrates the ^125 I-Queb binding without TPA and FIG. 3B illustrates the results with TPA. […] However, the elution patterns of ^125 I-Queb from the Queuine-sepharose was altered in the TPA samples.
SMILES,Unbound CPM [1],Bound CPM [1],% Bound [1],Binding of ^125 I-Queb to ligand-sepharose and its elution (in words) [1],Binding of ^125 I-Queb to ligand-sepharose and its elution (in words) ([1]; listed as guanine),Binding of Queb from BAF to ligand-sepharose column (Queb),Effect on differentiation response (in words) (HL-60 cells),Effect on cell growth (in words) [2],"IC50 ([2]; Homo sapiens, read-out: ID50, inhibition of cell growth)",Effect on amount of ^125 I-Queb bound to Queuine-sepharose (in words) (^125 I-Queb),Effect on elution of ^125 I-Queb from Queuine-sepharose (in words) (^125 I-Queb; without TPA 8 M urea needed)
NCC(=O)O [Glycine],"802,682 CPM","70,500 ± 8,800 CPM",8.08%,minimal amount,–,–,–,–,–,–,–
Nc1nc2c(ncn2[C@@H]2O[C@H](CO)[C@@H](O)[C@H]2O)c(=O)[nH]1 [Guanosine],"843,385 CPM","104,740 ± 12,885 CPM",11.05%,No ^125 I-Queb was found eluted,minimal amount,no presence of Queb that bound with high affinity; also recorded: did not bind,–,–,–,–,–
Nc1nc2[nH]cc(CN[C@H]3C=C[C@H](O)[C@@H]3O)c2c(=O)[nH]1 [Queuine],"404,060 CPM","851,350 ± 91,830 CPM",–,only eluted by 8M urea,–,eluted only under stringent elution conditions of 8 M urea; also recorded: high binding affinity,modulate the ability of cells to respond to differentiation signals; also recorded: markedly sensitized HL-60 cells to a TPA-induced differentiation response; also recorded: inhibit TPA when used concurrently,both stimulate and inhibit,7.8 µM,–,–
"CCCCCCCCCCCCCC(=O)O[C@@H]1[C@@H](C)[C@@]2(O)[C@@H](C=C(CO)C[C@]3(O)C(=O)C(C)=C[C@@H]23)[C@@H]2C(C)(C)[C@]12OC(C)=O [TPA, 12-O-tetradecanoyl-phorbol-13-acetate]",–,–,–,–,–,–,–,–,–,did not quantitatively alter,20 mM EDTA was able to elute and eluted under milder conditions of 20 mM EDTA
